Here are results for nine molecules from ChEMBL document CHEMBL1201862, “PubChem BioAssay data set” (2004).

Among the test systems are SN12C; SF-268; KM12; ACHN; UO-31; OVCAR-5; SW-620; RPMI-8226; MCF7; EKVX; DU-145; HCT-15; LOX IMVI; SF-539; COLO 205; NCI-H460; MDA-MB-231; HCC 2998; HOP-92.
Holding throughout (assay): NCI anticancer screen, dose series, 48 h

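1) Cells in 96-well plates. 2) Compound, 48 h, 5 concentrations. 3) Linear interpolation between surrounding doses. 4) Unreached endpoint = highest concentration. GI50 marks 50% less growth.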 The source made the active and inactive calls. Cut-off read from the data, not from the text of the source: active = GI50 up to about 1.1 µM and inactive = higher.

Take `Cc1nc(N)sc1/N=N/c1cc(Cl)c([N+](=O)[O-])cc1Cl`: the GI50 with SN12C was 17.6 µM (inactive); with SF-268 it was 29.9 µM (inactive); in the assay with KM12, 18.1 µM (inactive); in the assay on ACHN, 20.4 µM (inactive); in the assay with UO-31, 24.9 µM (inactive); with OVCAR-5 it was 31.3 µM (inactive). The GI50 with SW-620 is 16.4 µM (inactive); in the assay with RPMI-8226, 2.29 µM (inactive); with MCF7, 26.9 µM (inactive); with EKVX, 13 µM (inactive); in the assay on DU-145, 13.6 µM (inactive); in the assay on HCT-15, 21.4 µM. For the same molecule, the GI50 in the assay with LOX IMVI was 16.9 µM (inactive); in the assay with SF-539 it was 17.3 µM (inactive); in the assay on COLO 205, 31 µM (inactive); in the assay with NCI-H460, 30 µM (inactive); in the assay with MDA-MB-231, 14.8 µM (inactive).
As to `CCOC(=O)NCC(=O)NCC(=O)NCC(N)=O`, the GI50 in the assay on SF-268, in the assay on KM12, in the assay with ACHN, in the assay with UO-31, in the assay with OVCAR-5 and in the assay on SW-620 was > 100 µM (inactive) throughout. Moreover, the GI50 was > 100 µM (inactive) with RPMI-8226; > 100 µM (inactive) in the assay with MCF7; > 100 µM (inactive) in the assay with EKVX; > 100 µM (inactive) in the assay on DU-145; above 100 µM in the assay on HCT-15; > 100 µM (inactive) with HCC 2998. The GI50 in the assay with COLO 205 and with MDA-MB-231 was > 100 µM (inactive) each time.
Consider `Cc1ccc(N(C(=O)Nc2ccc(F)c(Cl)c2)C2=NCC(C)S2)cc1` (centres undefined), for which the GI50 with SN12C is 67 µM (inactive); with SF-268, 27.8 µM (inactive); in the assay with KM12, 42 µM (inactive); in the assay with ACHN, 50.2 µM (inactive); in the assay on UO-31, > 100 µM (inactive); in the assay on OVCAR-5 it was > 100 µM (inactive). Besides, the GI50 is 74 µM (inactive) with SW-620; > 10 µM (inactive) in the assay on RPMI-8226; 8.83 µM (inactive) in the assay on MCF7; 49.9 µM (inactive) in the assay with EKVX; > 100 µM (inactive) in the assay on DU-145; 52.7 µM in the assay with HCT-15. The GI50 was 30.2 µM (inactive) with LOX IMVI; 76.9 µM (inactive) in the assay on SF-539; 72.4 µM (inactive) in the assay with COLO 205; 45.1 µM (inactive) in the assay on NCI-H460; > 100 µM (inactive) in the assay with MDA-MB-231.
Turning to `COC(=O)/C=c1/c2ccccc2n2c1c1ccccc1[n+]2C`, the GI50 is 3.65 µM (inactive) in the assay with SN12C; 5.38 µM (inactive) in the assay with SF-268; 2.71 µM (inactive) in the assay on KM12; 3.92 µM (inactive) in the assay with ACHN; 7.13 µM (inactive) with UO-31; 4.6 µM (inactive) with OVCAR-5. In addition, the GI50 with SW-620 was 2.76 µM (inactive); in the assay on RPMI-8226 it was 2.77 µM (inactive); with MCF7, 3.34 µM (inactive); with EKVX it was 3.08 µM (inactive); in the assay with DU-145, 6.41 µM (inactive); in the assay on HCT-15 it was 13.4 µM. The GI50 was 4.27 µM (inactive) in the assay on LOX IMVI; 2.35 µM (inactive) with HCC 2998; 3.82 µM (inactive) with SF-539; 1.26 µM (inactive) in the assay on COLO 205; 3.37 µM (inactive) in the assay with NCI-H460; 4.59 µM (inactive) in the assay on MDA-MB-231.
For `COC(=O)n1c(C)c(C=O)c2ccc(OC)cc21`, the GI50 in the assay with SN12C is 55.6 µM (inactive); with SF-268, > 10 µM (inactive); in the assay on KM12, 36.4 µM (inactive); with ACHN, 33.1 µM (inactive); with UO-31 it was 34.4 µM (inactive); in the assay with OVCAR-5, 54.7 µM (inactive). The GI50 in the assay with MCF7 was 37.2 µM (inactive); in the assay with EKVX, 46.5 µM (inactive); with DU-145 it was 41.1 µM (inactive); with HCT-15 it was 31.1 µM; in the assay on LOX IMVI, 30.1 µM (inactive); with HCC 2998 it was 25.9 µM (inactive). The GI50 in the assay on SF-539 was 21.9 µM (inactive); in the assay with COLO 205, 46.9 µM (inactive); in the assay with NCI-H460, 47.8 µM (inactive); in the assay on MDA-MB-231 it was > 100 µM (inactive).
In the case of `O/N=C1\CCc2nonc2\C1=N/Nc1ccccc1`, the GI50 in the assay with SN12C is > 100 µM (inactive); with SF-268 it was > 100 µM (inactive); with KM12, > 100 µM (inactive); in the assay on ACHN, 43.7 µM (inactive); in the assay with UO-31 it was 30.5 µM (inactive); with OVCAR-5 it was > 100 µM (inactive). Also, the GI50 in the assay on SW-620 is > 100 µM (inactive); with RPMI-8226, > 100 µM (inactive); with EKVX, 39.9 µM (inactive); with DU-145, > 100 µM (inactive); with HCT-15, above 100 µM; in the assay on LOX IMVI, > 100 µM (inactive). The GI50 in the assay with HCC 2998, with SF-539, with COLO 205, in the assay on NCI-H460, in the assay on MDA-MB-231 and in the assay on HOP-92 was > 100 µM (inactive) each time.
Regarding `COc1ccc(-c2c3ccccc3c(-c3ccc(OCCBr)cc3)c3ccccc23)cc1`, the GI50 in the assay on SN12C was > 100 µM (inactive); in the assay on SF-268 it was > 100 µM (inactive); with KM12, > 100 µM (inactive); with ACHN, > 100 µM (inactive); in the assay with UO-31, 0.102 µM (active); in the assay with OVCAR-5 it was > 100 µM (inactive). Also, the GI50 with SW-620 was > 100 µM (inactive); in the assay on RPMI-8226 it was > 100 µM (inactive); in the assay on MCF7 it was > 100 µM (inactive); in the assay on EKVX, > 100 µM (inactive); with DU-145 it was > 100 µM (inactive); in the assay on HCT-15, above 100 µM. The GI50 in the assay with LOX IMVI, in the assay with HCC 2998, with SF-539, in the assay with COLO 205, with NCI-H460 and with MDA-MB-231 was > 100 µM (inactive) throughout.
As for `C=C1C(=O)CCC1C(=O)O` (centres undefined), the GI50 in the assay on SN12C, with SF-268, in the assay with KM12, in the assay on ACHN, in the assay with UO-31 and in the assay on OVCAR-5 was > 100 µM (inactive) throughout. Besides, the GI50 with SW-620 is > 100 µM (inactive); with RPMI-8226, > 100 µM (inactive); with MCF7, > 100 µM (inactive); in the assay with EKVX, > 100 µM (inactive); with DU-145, > 100 µM (inactive); in the assay with HCT-15 it was above 100 µM. For the same molecule, the GI50 in the assay with LOX IMVI, in the assay on HCC 2998, in the assay on SF-539, in the assay on COLO 205, in the assay with NCI-H460 and in the assay on MDA-MB-231 was > 100 µM (inactive) throughout.
Consider `Cc1cccc2c1[C@]13OC(C)[C@]4(C)CC5OC(=O)[C@@]1(C)[C@@H]5[C@]34C(=O)O2` (some centres undefined), for which the GI50 with SN12C, in the assay on SF-268, in the assay with KM12, with ACHN, in the assay with UO-31 and in the assay with OVCAR-5 was > 100 µM (inactive) each time. For the same molecule, the GI50 is > 100 µM (inactive) with SW-620; > 100 µM (inactive) in the assay with RPMI-8226; > 100 µM (inactive) with MCF7; > 100 µM (inactive) in the assay on EKVX; > 100 µM (inactive) in the assay with DU-145; above 100 µM in the assay on HCT-15. Also, the GI50 in the assay on LOX IMVI, in the assay on HCC 2998, in the assay on SF-539, in the assay on COLO 205, in the assay with NCI-H460 and in the assay with MDA-MB-231 was > 100 µM (inactive) each time.
